This passage reports IC50 and Ki results from ChEMBL document CHEMBL1909046, “DrugMatrix in vitro pharmacology data”.

The first experiment has as its target T1, Angiotensin-converting enzyme (Oryctolagus cuniculus, UniProt P12822).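 Also: enzymatic inhibition of angiotensin-converting enzyme measured with FAPGG as the substrate; in other assays of this panel Not Active means under 50% inhibition at 10 µM.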
T1 sequence (P12822 whole entry): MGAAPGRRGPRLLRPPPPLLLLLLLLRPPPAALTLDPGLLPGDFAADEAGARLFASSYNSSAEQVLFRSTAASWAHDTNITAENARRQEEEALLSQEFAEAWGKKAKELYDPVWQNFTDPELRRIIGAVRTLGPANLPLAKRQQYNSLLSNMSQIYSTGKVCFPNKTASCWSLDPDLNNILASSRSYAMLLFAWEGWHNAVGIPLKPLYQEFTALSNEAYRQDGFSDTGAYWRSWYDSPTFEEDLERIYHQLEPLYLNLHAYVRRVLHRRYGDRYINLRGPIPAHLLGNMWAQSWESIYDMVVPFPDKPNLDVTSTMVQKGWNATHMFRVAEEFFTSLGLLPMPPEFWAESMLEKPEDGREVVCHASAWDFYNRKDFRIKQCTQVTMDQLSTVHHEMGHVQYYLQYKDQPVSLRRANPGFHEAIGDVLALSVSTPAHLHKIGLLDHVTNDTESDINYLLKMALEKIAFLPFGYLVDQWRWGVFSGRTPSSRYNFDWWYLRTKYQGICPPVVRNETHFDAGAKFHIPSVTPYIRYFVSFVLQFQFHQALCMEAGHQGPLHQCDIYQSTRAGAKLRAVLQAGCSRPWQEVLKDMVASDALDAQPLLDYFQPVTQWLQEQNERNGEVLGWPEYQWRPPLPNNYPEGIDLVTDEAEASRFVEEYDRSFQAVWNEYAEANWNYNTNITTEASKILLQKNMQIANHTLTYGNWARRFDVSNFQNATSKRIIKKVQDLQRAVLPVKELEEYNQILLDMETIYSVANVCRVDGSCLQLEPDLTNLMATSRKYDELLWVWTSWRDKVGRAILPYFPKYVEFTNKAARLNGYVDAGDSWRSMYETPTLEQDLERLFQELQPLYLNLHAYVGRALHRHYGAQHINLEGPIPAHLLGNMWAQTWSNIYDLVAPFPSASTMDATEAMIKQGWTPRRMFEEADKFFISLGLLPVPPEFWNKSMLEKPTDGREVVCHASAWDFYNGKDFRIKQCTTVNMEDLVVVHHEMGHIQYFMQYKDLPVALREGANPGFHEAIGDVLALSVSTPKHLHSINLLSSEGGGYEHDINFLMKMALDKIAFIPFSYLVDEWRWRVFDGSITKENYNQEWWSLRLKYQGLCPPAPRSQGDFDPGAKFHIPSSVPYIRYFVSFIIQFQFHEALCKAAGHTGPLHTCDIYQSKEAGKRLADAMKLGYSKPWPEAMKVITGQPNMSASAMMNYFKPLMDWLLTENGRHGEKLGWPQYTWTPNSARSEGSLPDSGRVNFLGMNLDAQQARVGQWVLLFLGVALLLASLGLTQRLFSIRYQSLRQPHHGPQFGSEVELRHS
The format is tissue-based, Lung.
Settings: not given
On to `CC(C)C(Br)C(=O)NC(N)=O` (centres undefined) [BROMISOVALUM], for which the IC50 result is given as “Not Active”.

Turning to `COc1ccc(C[C@H]2NC[C@H](O)[C@H]2OC(C)=O)cc1` [ANISOMYCIN], the IC50 entry is given as “Not Active” and the Ki result was “Not Active”.

In the case of `C[C@]12CCC(=O)C=C1CC[C@@H]1[C@@H]2CC[C@@]2(C)[C@H]1CC[C@]2(C)O` [METHYLTESTOSTERONE], the IC50 entry is recorded as “Not Active”.

As for `O=C1CC[C@@H](N2C(=O)c3ccccc3C2=O)C(=O)N1`, the IC50 result is recorded as “Not Active”.

For the compound `Cc1c(O)c(=O)ccn1C` [DEFERIPRONE], the IC50 result is “Not Active”.

With `CCOc1ccc(NC(C)=O)cc1` [PHENACETIN], the IC50 entry is “Not Active”.

Test system in another experiment: not listed separately
Nature of the experiment: DRUGMATRIX: Serotonin (5-Hydroxytryptamine) 5-HT3 radioligand binding (ligand: [3H] GR-65630). Type of experiment: cell membranes, Membrane. The following applies: hek293; Not Active = under 50% inhibition at 10 µM.
For `CC(C)C(Br)C(=O)NC(N)=O` (centres undefined) [BROMISOVALUM], the IC50 result is on record as “Not Active” and the Ki result is on record as “Not Active”.

Take `COc1ccc(C[C@H]2NC[C@H](O)[C@H]2OC(C)=O)cc1` [ANISOMYCIN]: the IC50 result is listed as “Not Active” and the Ki result is listed as “Not Active”.

Turning to `C[C@]12CCC(=O)C=C1CC[C@@H]1[C@@H]2CC[C@@]2(C)[C@H]1CC[C@]2(C)O` [METHYLTESTOSTERONE], the IC50 entry is “Not Active” and the Ki result is listed as “Not Active”.

With `O=C1CC[C@@H](N2C(=O)c3ccccc3C2=O)C(=O)N1`, the IC50 entry is given as “Not Active” and the Ki entry is “Not Active”.

In the case of `Cc1c(O)c(=O)ccn1C` [DEFERIPRONE], the IC50 entry is listed as “Not Active” and the Ki entry was “Not Active”.

With `CCOc1ccc(NC(C)=O)cc1` [PHENACETIN], the IC50 result is “Not Active” and the Ki entry is recorded as “Not Active”.

Another experiment addresses Carbonic anhydrase 2 (Homo sapiens, UniProt P00918). Nature of the experiment: DRUGMATRIX: Carbonic Anhydrase II enzyme inhibition (substrate: 4-Nitrophenyl acetate (4-NPA)). Type of experiment: tissue-based, Erythrocyte. The settings on record: erythrocyte; Not Active = under 50% inhibition at 10 µM.
Turning to `CC(C)C(Br)C(=O)NC(N)=O` (centres undefined) [BROMISOVALUM], the IC50 result is “Not Active”.

With `COc1ccc(C[C@H]2NC[C@H](O)[C@H]2OC(C)=O)cc1` [ANISOMYCIN], the IC50 result is listed as “Not Active” and the Ki result is on record as “Not Active”.

For the compound `C[C@]12CCC(=O)C=C1CC[C@@H]1[C@@H]2CC[C@@]2(C)[C@H]1CC[C@]2(C)O` [METHYLTESTOSTERONE], the IC50 result was “Not Active”.

For the compound `O=C1CC[C@@H](N2C(=O)c3ccccc3C2=O)C(=O)N1`, the IC50 result was “Not Active”.

As to `Cc1c(O)c(=O)ccn1C` [DEFERIPRONE], the IC50 entry is given as “Not Active”.

In the case of `CCOc1ccc(NC(C)=O)cc1` [PHENACETIN], the IC50 result is reported as “Not Active”.

The next experiment concerns the target T2, Muscarinic acetylcholine receptor M4 (Homo sapiens, UniProt P08173). Also: in other assays of this panel Not Active means under 50% inhibition at 10 µM.
T2 sequence (P08173 whole entry): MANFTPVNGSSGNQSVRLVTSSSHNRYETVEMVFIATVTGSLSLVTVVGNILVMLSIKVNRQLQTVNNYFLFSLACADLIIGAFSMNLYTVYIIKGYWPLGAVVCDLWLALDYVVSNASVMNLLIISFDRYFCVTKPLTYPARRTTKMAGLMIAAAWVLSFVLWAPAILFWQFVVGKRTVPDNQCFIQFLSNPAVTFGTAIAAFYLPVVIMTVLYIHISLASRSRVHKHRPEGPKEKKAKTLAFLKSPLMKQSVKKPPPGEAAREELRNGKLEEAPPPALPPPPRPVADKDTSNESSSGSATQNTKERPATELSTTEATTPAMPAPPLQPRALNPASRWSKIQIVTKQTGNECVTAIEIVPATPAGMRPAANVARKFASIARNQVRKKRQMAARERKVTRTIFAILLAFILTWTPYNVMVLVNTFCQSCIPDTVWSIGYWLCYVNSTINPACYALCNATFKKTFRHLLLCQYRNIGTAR
The format is cell membranes, CHO-K1, Membrane. The settings on record: cho-k1.
Turning to `CC(C)C(Br)C(=O)NC(N)=O` (centres undefined) [BROMISOVALUM], the IC50 result is listed as “Not Active”.

On to `COc1ccc(C[C@H]2NC[C@H](O)[C@H]2OC(C)=O)cc1` [ANISOMYCIN], for which the IC50 result is given as “Not Active” and the Ki entry is “Not Active”.

Turning to `C[C@]12CCC(=O)C=C1CC[C@@H]1[C@@H]2CC[C@@]2(C)[C@H]1CC[C@]2(C)O` [METHYLTESTOSTERONE], the IC50 result was “Not Active”.

On to `O=C1CC[C@@H](N2C(=O)c3ccccc3C2=O)C(=O)N1`, for which the IC50 result was “Not Active”.

As for `Cc1c(O)c(=O)ccn1C` [DEFERIPRONE], the IC50 entry is on record as “Not Active”.

Take `CCOc1ccc(NC(C)=O)cc1` [PHENACETIN]: the IC50 result is given as “Not Active”.

In a further experiment the target is 5-hydroxytryptamine receptor 6 (Homo sapiens, UniProt P50406). The format is cell membranes, HeLa, Membrane. The settings on record: hela. Also: in other assays of this panel Not Active means under 50% inhibition at 10 µM.
5-hydroxytryptamine receptor 6, sequence (P50406 whole entry): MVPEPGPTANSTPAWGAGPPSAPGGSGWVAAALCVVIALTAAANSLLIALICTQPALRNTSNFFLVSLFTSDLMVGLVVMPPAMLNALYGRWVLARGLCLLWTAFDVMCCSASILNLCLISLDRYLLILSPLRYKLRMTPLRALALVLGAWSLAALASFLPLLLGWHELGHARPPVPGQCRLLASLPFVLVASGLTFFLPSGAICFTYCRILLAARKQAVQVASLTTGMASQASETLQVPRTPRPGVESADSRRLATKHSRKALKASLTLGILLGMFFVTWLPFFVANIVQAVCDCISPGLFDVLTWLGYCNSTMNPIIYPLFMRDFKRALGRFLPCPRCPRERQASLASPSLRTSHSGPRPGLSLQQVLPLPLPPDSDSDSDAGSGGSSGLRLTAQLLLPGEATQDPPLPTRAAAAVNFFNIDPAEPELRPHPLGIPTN
`CC(C)C(Br)C(=O)NC(N)=O` (centres undefined) [BROMISOVALUM]: the IC50 entry is “Not Active”.

Regarding `COc1ccc(C[C@H]2NC[C@H](O)[C@H]2OC(C)=O)cc1` [ANISOMYCIN], the IC50 entry was “Not Active” and the Ki result was “Not Active”.

With `C[C@]12CCC(=O)C=C1CC[C@@H]1[C@@H]2CC[C@@]2(C)[C@H]1CC[C@]2(C)O` [METHYLTESTOSTERONE], the IC50 entry is “Not Active”.

Take `O=C1CC[C@@H](N2C(=O)c3ccccc3C2=O)C(=O)N1`: the IC50 entry is on record as “Not Active”.

In the case of `Cc1c(O)c(=O)ccn1C` [DEFERIPRONE], the IC50 entry was “Not Active”.

For the compound `CCOc1ccc(NC(C)=O)cc1` [PHENACETIN], the IC50 entry is listed as “Not Active”.

The next experiment has as its target T3, Vasoactive intestinal polypeptide receptor 1 (Homo sapiens, UniProt P32241). Also: in other assays of this panel Not Active means under 50% inhibition at 10 µM.
T3 sequence (P32241 whole entry): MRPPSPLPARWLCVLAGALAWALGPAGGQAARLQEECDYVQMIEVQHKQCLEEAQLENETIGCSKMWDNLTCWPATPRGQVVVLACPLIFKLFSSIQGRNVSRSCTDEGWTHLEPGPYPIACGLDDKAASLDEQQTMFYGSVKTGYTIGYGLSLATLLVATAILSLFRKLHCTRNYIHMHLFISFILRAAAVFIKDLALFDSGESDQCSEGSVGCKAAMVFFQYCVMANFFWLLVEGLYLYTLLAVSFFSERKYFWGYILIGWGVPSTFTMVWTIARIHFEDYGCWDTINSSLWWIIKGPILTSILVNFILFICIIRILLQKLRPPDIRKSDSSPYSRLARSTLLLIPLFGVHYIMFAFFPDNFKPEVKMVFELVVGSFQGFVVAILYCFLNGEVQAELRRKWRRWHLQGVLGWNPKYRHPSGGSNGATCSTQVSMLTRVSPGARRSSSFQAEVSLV
Type of experiment: cell membranes, Membrane. The settings on record: ht-29.
Take `CC(C)C(Br)C(=O)NC(N)=O` (centres undefined) [BROMISOVALUM]: the IC50 entry is reported as “Not Active”.

As to `COc1ccc(C[C@H]2NC[C@H](O)[C@H]2OC(C)=O)cc1` [ANISOMYCIN], the IC50 entry is given as “Not Active” and the Ki result was “Not Active”.

In the case of `C[C@]12CCC(=O)C=C1CC[C@@H]1[C@@H]2CC[C@@]2(C)[C@H]1CC[C@]2(C)O` [METHYLTESTOSTERONE], the IC50 result was “Not Active”.

Consider `O=C1CC[C@@H](N2C(=O)c3ccccc3C2=O)C(=O)N1`, for which the IC50 entry is “Not Active”.

On to `Cc1c(O)c(=O)ccn1C` [DEFERIPRONE], for which the IC50 entry is “Not Active”.

Take `CCOc1ccc(NC(C)=O)cc1` [PHENACETIN]: the IC50 result was “Not Active”.

Test system in another experiment: not listed separately
Nature of the experiment: DRUGMATRIX: GABAA, Muscimol, Central radioligand binding (ligand: [3H] Muscimol). The format is cell membranes, Rattus norvegicus, Wistar, Brain, Membrane. The following applies: Not Active = under 50% inhibition at 10 µM.
Consider `CC(C)C(Br)C(=O)NC(N)=O` (centres undefined) [BROMISOVALUM], for which the IC50 result is “Not Active” and the Ki entry was “Not Active”.

Regarding `COc1ccc(C[C@H]2NC[C@H](O)[C@H]2OC(C)=O)cc1` [ANISOMYCIN], the IC50 result is “Not Active” and the Ki entry is recorded as “Not Active”.

With `C[C@]12CCC(=O)C=C1CC[C@@H]1[C@@H]2CC[C@@]2(C)[C@H]1CC[C@]2(C)O` [METHYLTESTOSTERONE], the IC50 result was “Not Active” and the Ki entry is “Not Active”.

In the case of `O=C1CC[C@@H](N2C(=O)c3ccccc3C2=O)C(=O)N1`, the IC50 result is on record as “Not Active” and the Ki result is listed as “Not Active”.

For the compound `Cc1c(O)c(=O)ccn1C` [DEFERIPRONE], the IC50 entry is recorded as “Not Active” and the Ki entry is “Not Active”.

For the compound `CCOc1ccc(NC(C)=O)cc1` [PHENACETIN], the IC50 entry is “Not Active” and the Ki entry is “Not Active”.
